# Source: paper PMC7429357 (Journal of medicinal chemistry, 2020)
# Where two headings read alike, the source gives them in different places.
# Assays:
# NTMT1 [1] = molecular target: T1, NTMT1 (Homo sapiens, UniProt Q9BV86)
# T1 sequence (Q9BV86 1-223): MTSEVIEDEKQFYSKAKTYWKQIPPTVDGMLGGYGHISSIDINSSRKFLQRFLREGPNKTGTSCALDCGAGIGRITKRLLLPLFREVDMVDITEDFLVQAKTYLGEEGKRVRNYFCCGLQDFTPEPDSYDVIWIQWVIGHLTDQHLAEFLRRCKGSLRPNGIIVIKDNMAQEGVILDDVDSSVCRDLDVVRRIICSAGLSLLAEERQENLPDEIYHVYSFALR
# NTMT1 [2] = molecular target: T1, NTMT1; experiment: SAHH-coupled fluorescence assay; format: biochemical; conditions: for fold decrease in IC50 activity compared to 3: 10 min preincubation; for fold activity decrease compared to respective NAH-GPKRIA compound: 5 vs 1, 6 vs 2
# NTMT1 [3] = molecular target: T1, NTMT1; experiment: MALDI-MS methylation inhibition assay; format: biochemical; conditions: 10 min preincubation, 20 min
# [4] = molecular target: nicotinamide N-methyltransferase (NNMT) (Homo sapiens, UniProt P40261); conditions: at 100 μM
# [5] = molecular target: Trypanosoma brucei protein arginine methyltransferase 7 (TbPRMT7) (Trypanosoma brucei brucei, UniProt Q582G4); experiment: biochemical
# [6] = molecular target: euchromatic histone-lysine N-methyltransferase 2 (G9a) (Homo sapiens, UniProt Q96KQ7); conditions: at 100 μM
# [7] = molecular target: SET domain-containing protein 7 (SETD7) (Homo sapiens, UniProt Q8WTS6); conditions: at 100 μM
# NTMT1 [8] = conditions: cited from earlier work
# other methyltransferases = conditions: cited from earlier work
# NTMT1 [9] = conditions: MALDI-MS based assay; cited from earlier work
# euchromatic histone-lysine N-methyltransferase 2 (G9a), sequence (Q96KQ7 whole entry, species assumed, the tested form may be a part): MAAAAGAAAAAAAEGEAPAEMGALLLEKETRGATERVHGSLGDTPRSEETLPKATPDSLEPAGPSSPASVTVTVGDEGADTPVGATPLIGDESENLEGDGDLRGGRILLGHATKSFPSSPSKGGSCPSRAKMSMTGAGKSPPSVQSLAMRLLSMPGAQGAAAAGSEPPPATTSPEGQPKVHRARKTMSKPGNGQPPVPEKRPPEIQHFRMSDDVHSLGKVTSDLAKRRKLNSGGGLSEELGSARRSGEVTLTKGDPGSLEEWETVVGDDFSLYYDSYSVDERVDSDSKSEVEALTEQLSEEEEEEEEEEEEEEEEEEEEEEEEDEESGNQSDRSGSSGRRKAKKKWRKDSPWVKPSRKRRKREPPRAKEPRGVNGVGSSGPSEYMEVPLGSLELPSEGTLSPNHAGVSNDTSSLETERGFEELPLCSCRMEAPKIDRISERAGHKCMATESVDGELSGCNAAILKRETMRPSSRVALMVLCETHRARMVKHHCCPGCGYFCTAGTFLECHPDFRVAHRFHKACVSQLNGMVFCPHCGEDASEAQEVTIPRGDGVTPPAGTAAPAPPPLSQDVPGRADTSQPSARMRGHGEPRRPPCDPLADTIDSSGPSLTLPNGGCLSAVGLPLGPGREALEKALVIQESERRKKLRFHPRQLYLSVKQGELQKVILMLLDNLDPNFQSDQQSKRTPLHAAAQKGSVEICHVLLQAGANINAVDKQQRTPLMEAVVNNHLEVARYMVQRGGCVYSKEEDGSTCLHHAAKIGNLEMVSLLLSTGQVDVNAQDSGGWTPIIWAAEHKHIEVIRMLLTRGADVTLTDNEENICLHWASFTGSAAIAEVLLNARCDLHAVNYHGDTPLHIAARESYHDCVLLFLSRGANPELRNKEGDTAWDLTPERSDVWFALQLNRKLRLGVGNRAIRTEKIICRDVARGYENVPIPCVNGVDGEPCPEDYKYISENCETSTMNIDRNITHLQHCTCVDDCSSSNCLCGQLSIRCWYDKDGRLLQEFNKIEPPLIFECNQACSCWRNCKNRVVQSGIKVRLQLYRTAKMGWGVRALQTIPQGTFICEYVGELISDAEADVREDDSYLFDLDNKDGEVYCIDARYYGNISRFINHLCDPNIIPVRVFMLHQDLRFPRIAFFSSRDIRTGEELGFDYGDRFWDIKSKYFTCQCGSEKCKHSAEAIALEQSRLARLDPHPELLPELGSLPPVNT
# SET domain-containing protein 7 (SETD7), sequence (Q8WTS6 whole entry, species assumed, the tested form may be a part): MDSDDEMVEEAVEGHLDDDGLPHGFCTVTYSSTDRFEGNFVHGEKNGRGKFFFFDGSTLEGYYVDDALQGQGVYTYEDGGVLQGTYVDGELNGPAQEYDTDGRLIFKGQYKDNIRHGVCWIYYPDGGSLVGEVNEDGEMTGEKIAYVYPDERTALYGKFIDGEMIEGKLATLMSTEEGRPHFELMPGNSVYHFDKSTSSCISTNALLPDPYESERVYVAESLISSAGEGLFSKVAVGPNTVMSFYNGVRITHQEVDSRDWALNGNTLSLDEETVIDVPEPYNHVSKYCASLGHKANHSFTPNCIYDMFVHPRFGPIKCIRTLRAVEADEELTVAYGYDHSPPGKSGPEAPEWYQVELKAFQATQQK
# nicotinamide N-methyltransferase (NNMT), sequence (P40261 whole entry, species assumed): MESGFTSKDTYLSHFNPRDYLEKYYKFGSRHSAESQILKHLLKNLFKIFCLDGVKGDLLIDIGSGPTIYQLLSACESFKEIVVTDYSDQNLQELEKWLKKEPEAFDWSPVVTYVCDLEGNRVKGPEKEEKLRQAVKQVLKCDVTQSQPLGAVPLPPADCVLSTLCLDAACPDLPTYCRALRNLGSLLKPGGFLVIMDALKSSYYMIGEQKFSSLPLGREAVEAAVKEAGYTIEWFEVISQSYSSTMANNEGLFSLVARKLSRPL
# Trypanosoma brucei protein arginine methyltransferase 7 (TbPRMT7), sequence (Q582G4 whole entry): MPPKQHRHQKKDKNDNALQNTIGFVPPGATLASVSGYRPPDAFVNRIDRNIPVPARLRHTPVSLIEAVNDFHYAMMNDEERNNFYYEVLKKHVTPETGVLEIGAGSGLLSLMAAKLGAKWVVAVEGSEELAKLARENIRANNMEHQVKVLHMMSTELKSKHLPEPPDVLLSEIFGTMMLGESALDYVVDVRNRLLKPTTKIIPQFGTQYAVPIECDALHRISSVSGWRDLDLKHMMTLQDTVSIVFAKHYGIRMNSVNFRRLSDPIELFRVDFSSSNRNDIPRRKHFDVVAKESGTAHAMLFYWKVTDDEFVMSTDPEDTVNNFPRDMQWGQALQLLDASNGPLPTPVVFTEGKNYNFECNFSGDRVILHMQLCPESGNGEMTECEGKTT
compound,measurement,setting,value
"CC[C@H](C)[C@H](NC(=O)[C@H](CCCNC(=N)N)NC(=O)[C@H](CCCCN)NC(=O)[C@@H]1CCCN1C(=O)CNCCN(CC[C@H](N)C(=O)O)C[C@H]1O[C@@H](n2cnc3c(N)ncnc32)[C@H](O)[C@@H]1O)C(=O)N[C@@H](C)C(N)=O [Compound 1, NAH-C2-GPKRIA]","fold decrease in Ki, app in comparison with 3",NTMT1 [1],40 fold
same,fold decrease in IC50 activity compared to 3,NTMT1 [2],3 fold
"CC[C@H](C)[C@H](NC(=O)[C@H](CCCNC(=N)N)NC(=O)[C@H](CCCCN)NC(=O)[C@@H]1CCCN1C(=O)CNCCCN(CC[C@H](N)C(=O)O)C[C@H]1O[C@@H](n2cnc3c(N)ncnc32)[C@H](O)[C@@H]1O)C(=O)N[C@@H](C)C(N)=O [Compound 2, NAH-C3-GPKRIA]",fold decrease in IC50 activity compared to 3,NTMT1 [2],1.5 fold
"CC[C@H](C)[C@H](NC(=O)[C@H](CCCNC(=N)N)NC(=O)[C@H](CCCCN)NC(=O)[C@@H]1CCCN1C(=O)CNCCCCN(CC[C@H](N)C(=O)O)C[C@H]1O[C@@H](n2cnc3c(N)ncnc32)[C@H](O)[C@@H]1O)C(=O)N[C@@H](C)C(N)=O [Compound 3, NAH-C4-GPKRIA]",tri-methylation of GPKRIA peptide,NTMT1 [3]; 50 nM compound,substantially reduced
same,tri-methylation of GPKRIA peptide,NTMT1 [3]; 200 nM compound,barely detected
same,inhibitory activity,[4],barely showed inhibitory activity
same,inhibition at 33 µM,[5],< 50%
same,inhibitory activity,[6],barely showed inhibitory activity
same,inhibitory activity,[7],barely showed inhibitory activity
"N=C(N)NCCC[C@H](NC(=O)[C@H](CCCCN)NC(=O)[C@@H]1CCCN1C(=O)CNCCN(CC[C@H](N)C(=O)O)C[C@H]1O[C@@H](n2cnc3c(N)ncnc32)[C@H](O)[C@@H]1O)C(N)=O [Compound 5, NAH-C2-GPKR]",fold activity decrease compared to respective NAH-GPKRIA compound,NTMT1 [2],< 2 fold
"N=C(N)NCCC[C@H](NC(=O)[C@H](CCCCN)NC(=O)[C@@H]1CCCN1C(=O)CNCCCN(CC[C@H](N)C(=O)O)C[C@H]1O[C@@H](n2cnc3c(N)ncnc32)[C@H](O)[C@@H]1O)C(N)=O [Compound 6, NAH-C3-GPKR]",fold activity decrease compared to respective NAH-GPKRIA compound,NTMT1 [2],< 2 fold
"N=C(N)NCCC[C@H](NC(=O)[C@H](CCCCN)NC(=O)[C@@H]1CCCN1C(=O)CNCCCCN(CC[C@H](N)C(=O)O)C[C@H]1O[C@@H](n2cnc3c(N)ncnc32)[C@H](O)[C@@H]1O)C(N)=O [Compound 7, NAH-C4-GPKR]",fold better activity than 5,NTMT1 [2],4 fold
same,fold better activity than 6,NTMT1 [2],2 fold
NAH-C3-GPRRRS,IC50,NTMT1 [8],940 ± 160 nM
NAH-C3-PPKRIA,selectivity against other methyltransferases,other methyltransferases,more than 100 fold
same,IC50,NTMT1 [9],35 ± 2 nM
